From patent publication US11613746B2, “Methods for developing virus protein specific capture agents, capture agents, and methods of using the capture agents” (priority 2019, dated 2023)
Read-outs that look alike come from different tables or passages of the source.

Target: T1, CHIKV E2 protein (Chikungunya virus, UniProt Q8JUX5)
T1 construct: incubated with varying concentrations of biotin conjugated CHIKV E2 protein
T1 sequence (Q8JUX5 326-748 limits assumed): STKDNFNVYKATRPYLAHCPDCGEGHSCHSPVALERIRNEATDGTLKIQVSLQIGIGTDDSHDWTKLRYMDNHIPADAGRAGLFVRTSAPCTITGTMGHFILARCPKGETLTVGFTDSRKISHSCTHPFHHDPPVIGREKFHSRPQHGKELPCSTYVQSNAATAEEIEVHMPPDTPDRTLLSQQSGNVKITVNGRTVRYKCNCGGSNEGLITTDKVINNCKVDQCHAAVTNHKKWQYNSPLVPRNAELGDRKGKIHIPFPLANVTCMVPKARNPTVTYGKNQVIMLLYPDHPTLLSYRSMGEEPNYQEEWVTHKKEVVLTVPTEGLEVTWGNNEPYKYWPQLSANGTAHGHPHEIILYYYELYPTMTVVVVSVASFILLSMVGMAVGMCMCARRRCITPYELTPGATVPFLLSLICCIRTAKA
Experiment: LUMINEX binding assay (sandwich-type) of bead-attached capture agents with biotin conjugated CHIKV E2 protein
Details: for EC50: FIG. 9
Description: Referring to FIG. 4, the binding performance of each capture agent is determined using a LUMINEX® binding assay, which is essentially the same as a sandwich-type ELISA, where the peptides are attached to a bead as a one-arm polyethylene glycol (PEG) or three-arm PEG construct. By allowing these beads to interact with varying concentrations of the CHIKV E2 protein, one can determine and compare the binding performance of each capture agent construct. A smaller value of the variable on the horizontal axis at the inflection point of a given plot for a corresponding capture agent indicates stronger binding for the corresponding capture agent with respect to the target protein or target molecule.
Referring to FIG. 4, the assay for an illustrative example was performed on a LUMINEX® 200 instrument. LUMINEX®'s xMAP technology drives multiplexed assay capabilities by combining fluidics, optics, and digital signal processing with microsphere technology. The LUMINEX® 200 is capable of testing up to 100 analytes simultaneously from a single sample and is the leading multiplex immunoassay technology. In general, the color-coded microspheres are the substrate on which the solution phase assays are performed, where a specific microsphere color corresponds to an individual receptor attached to the microsphere surface.
In one illustrative example, 6 separate microsphere regions were first functionalized with a single arm polyethlyglycine (PEG) azide molecule. Each microsphere region was then reacted with an individual, alkyne-functionalized cyclic peptide (with the sequence WIYYI, IYLRY, YWHWS, FWQIL), or an equal combination of all sequences (noted as “polyclonal”). As a control, polyclonal Anti-E2 antibody was attached to a bead region for performance comparison against the peptide constructs. In an analogous experiment, the exact same process was repeated, except the single arm PEG azide molecule was switched to a 3-arm PEG azide molecule.
The details of some of the synthesis and experimental techniques useful in the embodiments herein can be found in United States Patent Application Publication No. US 2017/0349754 A1, by Matthew B. Coppock, published Dec. 7, 2017, M. B. Coppock et al., “A novel discovery, maturation, and assay integration approach for the development of ruggedized multi-valent capture receptors exemplified against the chikungunya virus E2 protein,” Sensing and Bio-Sensing Research 22 (2019) 100248, and M. B. Coppock, D. N. Stratis-Cullum, “A universal method for the functionalization of dyed magnetic microspheres with peptides,” Methods 158 (2019) 12-16, all of which, including their supplemental parts and appendices, are incorporated by reference herein in their entirety. […]

Row | Substance | binding activity remaining after heating (heated at 90° C. for 1 hr, result in words) | binding performance compared to commercially available antibody raised against E2 (multi-arm constructs, result in words) | EC50 (heated at 90° C. for 1 hr before assay, read-out: EC50 (binding activity for CHIKV E2) after heating) | EC50 (unheated control, LUMINEX assay, read-out: EC50 (binding activity for CHIKV E2) before heating)
1 | WIYYI | no loss in binding activity | outperform the antibody | – | –
2 | WIYYI (chains of the parent or of the whole protein) | – | – | 0.245 ± 0.005 nM | 0.232 ± 0.006 nM
